The record followed here is patent US11976083B2, “Inhibitors of peptidylarginine deiminases” (Gilead Sciences, Inc., priority 2020, dated 2024).

The target in the experiment is T1, human PAD4 (Homo sapiens, UniProt Q9UM07).
T1 construct: human PAD4 (NM_012387), A2-P663, was PCR amplified; His-SUMO (N, cleaved yes); made in house; host or cells: E. coli BL21(DE3)
In words: In vitro PAD4 BAEE biochemical assay. As to conditions: BAEE substrate 3 mM, 5 nM PAD4, 2 mM calcium chloride; geometric mean of multiple experiments. In a few lines:
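Assay was run at 25 °C using 3 mM BAEE and 5 nM human PAD4 after a 30 min compound preincubation; ammonia produced over 2 h was quantified by OPA-derived fluorescence. Full inhibition was defined by 50 µM BB-Cl-Amidine, and IC50 came from variable-slope nonlinear regression.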

T1 sequence (Q9UM07 2-663): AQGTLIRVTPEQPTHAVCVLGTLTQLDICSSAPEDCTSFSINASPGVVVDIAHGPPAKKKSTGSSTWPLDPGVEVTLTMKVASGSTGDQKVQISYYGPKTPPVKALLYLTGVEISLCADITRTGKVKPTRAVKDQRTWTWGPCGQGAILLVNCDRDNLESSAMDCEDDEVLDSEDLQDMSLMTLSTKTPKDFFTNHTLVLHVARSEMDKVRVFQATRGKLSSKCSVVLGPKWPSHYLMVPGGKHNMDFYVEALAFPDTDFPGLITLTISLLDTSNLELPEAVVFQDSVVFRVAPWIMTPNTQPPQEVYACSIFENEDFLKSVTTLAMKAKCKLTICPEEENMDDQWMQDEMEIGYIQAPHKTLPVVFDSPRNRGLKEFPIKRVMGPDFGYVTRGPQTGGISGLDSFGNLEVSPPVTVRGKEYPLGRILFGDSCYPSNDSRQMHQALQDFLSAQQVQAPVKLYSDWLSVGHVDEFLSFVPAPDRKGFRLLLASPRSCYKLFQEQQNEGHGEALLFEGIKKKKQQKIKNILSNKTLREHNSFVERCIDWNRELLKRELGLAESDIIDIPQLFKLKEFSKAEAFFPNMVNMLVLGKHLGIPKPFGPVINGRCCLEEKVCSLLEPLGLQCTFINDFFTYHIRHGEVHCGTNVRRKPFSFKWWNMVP

With `COc1cc(C(=O)N2C[C@@H]3C[C@@H]3[C@@H](N)C2)cc2nc(-c3cc4ccc5nc4n3CCCCCCC(C)(C)C(=O)N[C@@H]5C)n(C)c12` [Example 542, (11~{R})-17-[5-[(1~ {R},5~{R},6~{S})-5-amino-3-azabicyclo [4.1.0]heptane-3-carbonyl]-7-methoxy-1-methyl-benzimidazol-2-yl]-8,8,11-trimethyl-1,10,19-triazatricyclo [10.5.2.0^{15,18}]nonadeca-12(19),13,15(18), 16-tetraen-9-one], the half-inhibitory concentration (IC50) worked out at 479 nM. Then `COc1cc(C(=O)N2[C@H]3CC[C@@H]2[C@H](N)C3)cc2nc(-c3cc4ccc5cc4n3CCCCCCC(=O)Nc3ccccc3-5)n(C)c12` [Example 94, 17-[5-[(1~{R},2~{R},4~{S})-2-amino-7-azabicyclo[2.2.1]heptane-7-carbonyl]-7-methoxy-1-methyl-benzimidazol-2-yl]-8,16-diazatetracyclo[14.5.2.0^{2,7}.0^{19,23}] tricosa-1(22),2,4,6,17,19(23),20-heptaen-9-one], with 165 nM. Then `COc1cc(C(=O)N2C[C@H](N)[C@@H]3CC[C@H]2C3)cc2nc(-c3cc4ccc5nc4n3CCCCCC[C@@](F)(c3ccccn3)C(=O)N[C@@H]5C)n(C)c12` [Example 884, (8~{R},11~{R})-17-[5-[(1~{S),4~{R},5~{R})-4-amino-2-azabicyclo[3.2.1]octane-2-carbonyl]-7-methoxy-1-methyl-benzimidazol-2-yl]-8-fluoro-11-methyl-8-(2-pyridyl)-1,10,19-triazatricyclo[10.5.2.0^ {15,18}]nonadeca-12(19), 13,15(18),16-tetraen-9-one], with 24 nM.

With `COc1cc(C(=O)N[C@@H]2CNC[C@@H]3C[C@@H]32)cc2nc(-c3cc4ccc5nc4n3CCCCCCC(C)(C)C(=O)N[C@@H]5C)n(C)c12` [Example 202, ~{N}-[(1~{R},5~{S},6~{S})-3-azabicyclo[4.1.0]heptan-5-yl]-7-methoxy-1-methyl-2-[(11~{R})-8,8,11-trimethyl-9-oxo-1,10,19-triazatricyclo[10.5.2.0^{15,18}]nonadeca-12(19),13,15(18),16-tetraen-17-yl]benzimidazole-5-carboxamide], the 50% inhibitory concentration (IC50) was found to be 5130 nM. Then `COc1cc(C(=O)N(C)[C@H]2CNCC[C@@H]2F)cc2nc(-c3cc4ccc5nc4n3CCCCCCC(C)(C)C(=O)N[C@@H]5C)n(C)c12` [Example 514, ~{N}-[(3~{S},4~{S})-4-fluoro-3-piperidyl]-7-methoxy-~{N},1-dimethyl-2-[(11~{R})-8,8,11-trimethyl-9-oxo-1,10,19-triazatricyclo[10.5.2.0^ {15,18}]nonadeca-12(19),13,15(18),16-tetraen-17-yl]benzimidazole-5-carboxamide], with 371 nM. Then `COc1cc(C(=O)N2CCC[C@@H](N)C2)cc2nc(-c3cc4ccc5cc4n3CCCOC[C@H]3C[C@H]3C(=O)N[C@@H]5C)n(C)c12` [Example 307, (2~{R},5~{R},7~{S})-14-[5-[(3~{R})-3-aminopiperidine-1-carbonyl]-7-methoxy-1-methyl-benzimidazol-2-yl]-2-methyl-9-oxa-3,13-diazatetracyclo[11.5.2.0^{5,7}.0^{16,20}] icosa-1(19),14,16(20),17-tetraen-4-one], with 82 nM; and `COc1cc(C(=O)N2C[C@H](N)[C@@H]3CC[C@H]2C3)cc2nc(-c3cc4ccc5nc4n3CCCCCC[C@@](F)(c3ccccn3)C(=O)N[C@@H]5C)n(C3CC3)c12` (single isomer, unassigned) [Example 944, (8˜{R},11˜{R})-17-[5-[(1˜{S},4˜{R},5˜{R})-4-amino-2-azabicyclo[3.2.1]octane-2-carbonyl]-1-cyclopropyl-7-methoxy-benzimidazol-2-yl]-8-fluoro-11-methyl-8-(2-pyridyl)-1,10,19-triazatricyclo[10.5.2.0^{15,18}]nonadeca-12(19),13,15(18),16-tetraen-9-one], with 64 nM; and `COc1cc(C(=O)N2CC[C@@H](OC)[C@@H](N)C2)cc2nc(-c3cc4ccc5nc4n3CC(F)(F)CCC[C@@H]3C[C@H]3C(=O)N(C)[C@@H]5C)n(C)c12` [Example 692, (2~{R},5~{R},7~{R})-14-[5-[(3~{S},4~{R})-3-amino-4-methoxy-piperidine-1-carbonyl]-7-methoxy-1-methyl-benzimidazol-2-yl]-11,11-difluoro-2,3-dimethyl-3,13,19-triazatetracyclo[11.5.2.0^ {5,7}.0^{16,20}]icosa-1(19),14,16(20),17-tetraen-4-one], with 27 nM. Then `COc1cc(C(=O)N2[C@H]3CC[C@@H]2[C@H](N)C3)cc2nc(-c3cc4ccc5cc4n3CCCCCCNC(=O)c3ccccc3-5)n(C)c12` [Example 97, 17-[5-[(1~{R},2~{R},4~{S})-2-amino-7-azabicyclo[2.2.1]heptane-7-carbonyl]-7-methoxy-1-methyl-benzimidazol-2-yl]-9,16-diazatetracyclo[14.5.2.0^{2,7}.0^{19,23}] tricosa-1(22),2,4,6,17,19(23),20-heptaen-8-one], with 57 nM; and `COCCn1c(-c2cc3ccc4nc3n2CCCCCc2nccnc2C(=O)N[C@@H]4C)nc2cc(C(=O)N3CC[C@@H](OC)[C@@H](N)C3)cc(F)c21` [Example 435, (2~{R})-17-[5-[(3~{S},4~{R})-3-amino-4-methoxy-piperidine-1-carbonyl]-7-fluoro-1-(2-methoxyethyl)benzimidazol-2-yl]-2-methyl-3,6,9,16,22-pentazatetracyclo[14.5.2.0^{5,10}.0^{19, 23}]tricosa-1(22),5(10),6,8,17,19(23),20-heptaen-4-one], with 394 nM; and `COc1cc(C(=O)N2[C@H]3CC[C@@H]2[C@H](N)C3)cc2nc(-c3cc4ccc5nc4n3CCCCCCC(C)(C)C(=O)N[C@@H]5C)n(C)c12` [Example 20, (11~{R})-17-[5-[(1~{R},2~{R},4~{S})-2-amino-7-azabicyclo[2.2.1]heptane-7-carbonyl]-7-methoxy-1-methyl-benzimidazol-2-yl]-8,8,11-trimethyl-1,10,19-triazatricyclo[10.5.2.0^{15,18}]nonadeca-12(19),13,15(18),16-tetraen-9-one], with 62 nM. In the case of `COc1cc(C(=O)N2C[C@H](N)[C@@H]3CC[C@H]2C3)cc2nc(-c3cc4ccc5nc4n3CC(F)(F)CCCOC3(CC3)C(=O)N[C@@H]5C)n(C)c12` [Example 761, (11~{R})-17-[5-[(1~{S},4~{R}, 5~{R})-4-amino-2-azabicyclo [3.2.1]octane-2-carbonyl]-7-methoxy-1-methyl-benzimidazol-2-yl]-3,3-difluoro-11-methyl-spiro[7-oxa-1,10,19-triazatricyclo[10.5.2.0^ {15,18}]nonadeca-12(19), 13,15(18),16-tetraene-8,1′-cyclopropane]-9-one], the IC50 was found to be 67 nM.

In the case of `COc1cc(C(=O)N[C@H]2CNC[C@H]2F)cc2nc(-c3cc4ccc5nc4n3CCCCCCC(C)(C)C(=O)N[C@@H]5C)n(C)c12` [Example 199, ~{N}-[(3~{S),4~{R})-4-fluoropyrrolidin-3-yl]-7-methoxy-1-methyl-2-[(11~{R})-8,8,11-trimethyl-9-oxo-1,10,19-triazatricyclo[10.5.2.0^{15,18}]nonadeca-12(19),13,15(18),16-tetraen-17-yl]benzimidazole-5-carboxamide], the IC50 turned out to be 18400 nM. Then `COc1cc(C(=O)N2[C@H]3CC[C@@H]2[C@H](N)C3)cc2nc(-c3cc4ccc5nc4n3CCCCCCCC(=O)Nc3ncccc3-5)n(C)c12` [Example 89, 18-[5-[(1~{R},2~{R},4~{S})-2-amino-7-azabicyclo[2.2.1]heptane-7-carbonyl]-7-methoxy-1-methyl-benzimidazol-2-yl]-6,8,17,23-tetrazatetracyclo[15.5.2.0^{2,7}.0^{20,24}] tetracosa-1(23),2,4,6,18,20(24),21-heptaen-9-one], with 113 nM; and `COc1cc(C(=O)N2CCC[C@@H](N)C2)cc2nc(-c3cc4ccc5nc4n3CCCCCCc3cn(nn3)C5C)n(C)c12` (stereo partly drawn) [Example 25, [(3˜{R})-3-amino-1-piperidyl]-[7-methoxy-1-methyl-2-(2-methyl-3,4,5,13,19-pentazatetracyclo[11.5.2.1^{3,6}.0^{16,20}]henicosa-1(19),4,6(21),14,16(20),17-hexaen-14-yl)benzimidazol-5-yl]methanone], with 775 nM; and `COc1cc(C(=O)N2CCC[C@@H](N)C2)cc2nc(-c3cc4ccc5nc4n3C[C@@H]3C[C@H]3CO[C@H](C)CC(=O)N[C@@H]5C)n(C)c12` [Example 268, (5~{R},8~{R},12~{R})-18-[5-[(3~{R})-3-aminopiperidine-1-carbonyl]-7-methoxy-1-methyl-benzimidazol-2-yl]-8,12-dimethyl-7-oxa-1,11,20-triazatetracyclo[11.5.2.0^{3,5}.0^{16,19}] icosa-13(20),14,16(19),17-tetraen-10-one], with 137 nM. Then `COc1cc(C(=O)N2C[C@H](N)C[C@@H](F)C2)cc2nc(-c3cc4ccc5nc4n3CCCCCc3nc4ccsc4cc3C(=O)N[C@@H]5C)n(C)c12` [Example 794, (2~{R})-20-[5-[(3~{R},5~{R})-3-amino-5-fluoro-piperidine-1-carbonyl]-7-methoxy-1-methyl-benzimidazol-2-yl]-2-methyl-8-thia-3,12,19,25-tetrazapentacyclo[17.5.2.0^ {5,13}.0^{7,11).0^{22,26}] hexacosa-1(24),5(13), 6,9,11,20,22,25-octaen-4-one], with 18 nM; and `COc1cc(C(=O)N2[C@H]3CC[C@@H]2[C@H](N)C3)cc2nc(-c3cc4ccc5nc4n3CCCCc3cccc(n3)C(=O)N[C@@H]5C)n(C)c12` [Example 37, (2~{R})-15-[5-[(1~{R},2~{R},4~{S})-2-amino-7-azabicyclo[2.2.1]heptane-7-carbonyl]-7-methoxy-1-methyl-benzimidazol-2-yl]-2-methyl-3,14,20,22-tetrazatetracyclo[12.5.2.1^{5,9}.0^{17,21}] docosa-1(20),5,7,9(22),15,17(21),18-heptaen-4-one], with 553 nM.
